{"source": "patent US7973051B2", "about": "(Hoffman-La Roche Inc., priority 2007, dated 2011)", "data": [{"target": "T1, human liver FBPase (Homo sapiens, UniProt P09467)", "T1 construct": "made in house; host or cells: E. coli", "T1 sequence (P09467 2-338 limits assumed)": "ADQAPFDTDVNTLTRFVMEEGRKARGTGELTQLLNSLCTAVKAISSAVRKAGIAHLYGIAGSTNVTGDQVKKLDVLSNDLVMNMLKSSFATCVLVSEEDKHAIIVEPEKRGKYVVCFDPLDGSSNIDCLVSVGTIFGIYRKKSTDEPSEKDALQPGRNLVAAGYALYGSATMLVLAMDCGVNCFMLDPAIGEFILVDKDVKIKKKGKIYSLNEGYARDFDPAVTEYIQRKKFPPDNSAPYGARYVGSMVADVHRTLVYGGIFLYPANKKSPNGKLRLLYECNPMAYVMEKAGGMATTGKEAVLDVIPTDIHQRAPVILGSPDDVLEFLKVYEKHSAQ", "experiment": "FBPase assay: inorganic phosphate release (malachite green)", "type": "biochemical", "conditions": "recombinant human liver FBPase, 50 μM fructose-1,6-bisphosphate, read-out at 620 nm", "description": "The following tests were carried out for evaluating the inhibitory activity of the compounds of the present invention against human liver FBPase (Swissprot Data base reference P09467, entry F16P_HUMAN).\nHuman liver FBPase cDNA (NM_000507) was purchased from Origene Technologies, Inc, subcloned in a vector for expression in E. Coli., and sequenced. Recombinant human liver FBPase (hlFBPase) was purified according to the following protocol that uses heat denaturation similarly to that described by El-Maghrabi et. al. [El-Maghrabi, M. R. et al. “Isolation of a human liver fructose-1,6-bisphosphatase cDNA and expression of the protein in Escherichia coli.” J Biol Chem 268:9466-9472, 1993.]. Briefly, E. coli cells, transiently expressing very high levels of soluble and active human liver FBPase, were suspended in 20 mM Tris-HCl pH 7.5, 1 mM EDTA, 1 mM DTT and were lysed by French press. The soluble extract was heat denatured at 65° C. for 5 min, and insoluble, denatured proteins were removed by centrifugation. The extract was then applied to a BioRad Macro-Prep High Q column equilibrated with 20 mM Tris-HCl pH 7.5, 1 mM EDTA, 1 mM DTT and the flow-through (containing FBPase activity) was collected and applied to a BioRad Macro-Prep HS column equilibrated with 20 mM HEPES pH 7.2, 1 mM DTT. A gradient of increasing NaCl concentration was then applied to the HS column and fractions were collected. Fractions containing active FBPase were pooled and further purified by size exclusion chromatography on a Sephacryl S200 column equilibrated in 20 mM Tris-HCl pH 7.5, 150 mM NaCl, 1 mM EDTA, 1 mM DTT. Purity of the enzyme preparation was >90% as assessed by Mass spectrometry.\nRecombinant human liver FBPase (hlFBPase) activity was assayed through measuring the inorganic phosphate release that results from the hydrolysis of Fructose-1,6-bisphosphate by the enzyme. As described by Baykov A. A. et al. in [Baykov A. A et al., “Malachite Green procedure for orthophosphate determination and its use in alkaline phosphatase-based enzyme immunoassays”. Anal. Biochem., 171:266-270, 1988], inorganic phosphate can be readily quantified by spectrophotometry at 620 nm after complexation with ammonium molybdate/malachite green reagent. Enzymatic reaction was carried out with modifications of the procedure described by Wright S. W. et al. [Wright S. W. et al., “Anilinoquinazoline inhibitors of Fructose-1,6-bisphosphatase bind to a novel allosteric site: synthesis, in vitro characterization, and X-ray crystallography”. J. Med. Chem. 45:3865-3877, 2002]. Specifically, the reaction was carried out in 96 well plates in a final volume of 100 μl in the presence or in the absence of allosteric inhibitors. Reaction was started adding 25 ng of hlFBPase to the reaction mixture containing 50 mM HEPES-KOH buffer pH 7.2, 2 mM MgCl2, 2 mM EDTA, 1 mM DTT, 50 μM fructose-1,6-bisphosphate and 1% DMSO. After 50 minutes incubation at room temperature, the phosphate released was allowed to form a colored complex for 10 min by adding 150 μl of ammonium molybdate/malachite green reagent containing 0.03% malachite green, 0.2% ammonium molybdate, 0.05% Triton X-100 and 0.7 M H2SO4 in water that was stirred for 30 min at room temperature and filtered through 0.2 μm filter. Under these conditions, the assay was linear with time and able to detect FBPase inhibition after spectrophotometric read-out at 620 nm.", "units": {"IC50": "nM"}, "values": [{"smiles": "COc1ccc(Cl)c2sc(NC(=O)NS(=O)(=O)c3cc(C)c(CCO)s3)nc12", "note": "[Example 92, N-[(7-Chloro-4-methoxy-1,3-benzothiazol-2-yl)carbamoyl]-5-(2-hydroxyethyl)-4-methylthiophene-2-sulfonamide]", "IC50": 38}, {"smiles": "Cc1c(S(=O)(=O)NC(=O)Nc2ncc(Br)s2)sc2ccc(Br)cc12", "note": "[Example 5, 5-Bromo-N-[(5-bromo-1,3-thiazol-2-yl)carbamoyl]-3-methyl-1-benzothiophene-2-sulfonamide]", "IC50": 1470}, {"smiles": "CCc1sc(NC(=O)NS(=O)(=O)c2cc(C)c(CCO)s2)nc1-c1ccccc1", "note": "[Example 81, N-[(5-Ethyl-4-phenyl-1,3-thiazol-2-yl)carbamoyl]-5-(2-hydroxyethyl)-4-methylthiophene-2-sulfonamide]", "IC50": 102}, {"smiles": "Cn1cc(S(=O)(=O)NC(=O)Nc2ncc(Br)s2)c2ccccc21", "note": "[Example 23, N-[(5-Bromo-1,3-thiazol-2-yl)carbamoyl]-1-methyl-1H-indole-3-sulfonamide]", "IC50": 385}, {"smiles": "COc1ccc2nc(NC(=O)NS(=O)(=O)c3cc(C)c(CCO)s3)sc2n1", "note": "[Example 56, 5-(2-Hydroxyethyl)-N-[(5-methoxy[1,3]thiazolo[5,4-b]pyridin-2-yl)carbamoyl]-4-methylthiophene-2-sulfonamide]", "IC50": 534}, {"smiles": "CCc1nc(NC(=O)NS(=O)(=O)c2cc(C)c(CCO)s2)sc1CC", "note": "[Example 69, N-[(4,5-Diethyl-1,3-thiazol-2-yl)carbamoyl]-5-(2-hydroxyethyl)-4-methylthiophene-2-sulfonamide]", "IC50": 340}, {"smiles": "COCCc1sc(S(=O)(=O)NC(=O)Nc2nc3cc(OC)ccc3s2)cc1C", "note": "[Example 45, N-[(5-Methoxy-1,3-benzothiazol-2-yl)carbamoyl]-5-(2-methoxyethyl)-4-methylthiophene-2-sulfonamide]", "IC50": 402}, {"smiles": "O=C(Nc1ncc(Br)s1)NS(=O)(=O)c1csc2ccccc12", "note": "[Example 4, N-[(5-Bromo-1,3-thiazol-2-yl)carbamoyl]-1-benzothiophene-3-sulfonamide]", "IC50": 212}, {"smiles": "CCc1nc(NC(=O)NS(=O)(=O)c2csc(C)c2)sc1Br", "note": "[Example 57, N-[(5-Bromo-4-ethyl-1,3-thiazol-2-yl)carbamoyl]-5-methylthiophene-3-sulfonamide]", "IC50": 188}, {"smiles": "CCc1sc(NC(=O)NS(=O)(=O)c2cc(C)c(CCOC)s2)nc1C(C)C", "note": "[Example 77, N-[(5-Ethyl-4-isopropyl-1,3-thiazol-2-yl)carbamoyl]-5-(2-methoxyethyl)-4-methylthiophene-2-sulfonamide]", "IC50": 366}, {"smiles": "COc1cnc(NC(=O)NS(=O)(=O)c2cn(C)c3c(OCCO)cccc23)s1", "note": "[Example 47, 7-(2-Hydroxyethoxy)-N-[(5-methoxy-1,3-thiazol-2-yl)carbamoyl]-1-methyl-1H-indole-3-sulfonamide]", "IC50": 734}, {"smiles": "CCc1sc(NC(=O)NS(=O)(=O)c2csc(C)c2)nc1-c1ccccc1", "note": "[Example 71, N-[(5-Ethyl-4-phenyl-1,3-thiazol-2-yl)carbamoyl]-5-methylthiophene-3-sulfonamide]", "IC50": 159}, {"smiles": "COc1sc(NC(=O)NS(=O)(=O)c2cc(C)c(CCOC(C)=O)s2)nc1C", "note": "[Example 74, 2-[5-({[(5-Methoxy-4-methyl-1,3-thiazol-2-yl)carbamoyl]amino}sulfonyl)-3-methyl-2-thienyl]ethyl acetate]", "IC50": 454}, {"smiles": "O=C(Nc1ncc(Br)s1)NS(=O)(=O)c1cc2ccccc2s1", "note": "[Example 2, N-[(5-Bromo-1,3-thiazol-2-yl)carbamoyl]-1-benzothiophene-2-sulfonamide]", "IC50": 434}, {"smiles": "CCc1nc(NC(=O)NS(=O)(=O)c2csc(C)c2)sc1OC", "note": "[Example 61, N-[(4-Ethyl-5-methoxy-1,3-thiazol-2-yl)carbamoyl]-5-methylthiophene-3-sulfonamide]", "IC50": 466}, {"smiles": "CCOC(=O)COc1cccc2c(S(=O)(=O)NC(=O)Nc3ncc(Br)s3)cn(C)c12", "note": "[Example 50, Ethyl {[3-({[(5-bromo-1,3-thiazol-2-yl)carbamoyl]amino}sulfonyl)-1-methyl-1H-indol-7-yl]oxy}acetate]", "IC50": 212}, {"smiles": "CCc1sc(NC(=O)NS(=O)(=O)c2cc(C)c(CCOC(C)=O)s2)nc1-c1ccccc1", "note": "[Example 80, 2-[5-({[(5-Ethyl-4-phenyl-1,3-thiazol-2-yl)carbamoyl]amino}sulfonyl)-3-methyl-2-thienyl]ethyl acetate]", "IC50": 161}, {"smiles": "Cn1cc(S(=O)(=O)NC(=O)Nc2ncc(Br)s2)c2cccc(OCc3ccccc3)c21", "note": "[Example 41, 7-(Benzyloxy)-N-[(5-bromo-1,3-thiazol-2-yl)carbamoyl]-1-methyl-1H-indole-3-sulfonamide]", "IC50": 124}, {"smiles": "O=C(Nc1ncc(Br)s1)NS(=O)(=O)c1csc2ccc(Cl)cc12", "note": "[Example 12, N-[(5-Bromo-1,3-thiazol-2-yl)carbamoyl]-5-chloro-1-benzothiophene-3-sulfonamide]", "IC50": 370}, {"smiles": "CSc1sc(NC(=O)NS(=O)(=O)c2cc(C)c(CCO)s2)nc1C", "note": "[Example 86, 5-(2-Hydroxyethyl)-4-methyl-N-{[4-methyl-5-(methylthio)-1,3-thiazol-2-yl]carbamoyl}thiophene-2-sulfonamide]", "IC50": 71}, {"smiles": "COc1cccc2cc(S(=O)(=O)NC(=O)Nc3ncc(Br)s3)n(C)c12", "note": "[Example 40, N-[(5-bromo-1,3-thiazol-2-yl)carbamoyl]-7-methoxy-1-methyl-1H-indole-2-sulfonamide]", "IC50": 329}, {"smiles": "COCCc1sc(S(=O)(=O)NC(=O)Nc2nc3ccc(OC)nc3s2)cc1C", "note": "[Example 90, 5-(2-Methoxyethyl)-N-[(5-methoxy[1,3]thiazolo[5,4-b]pyridin-2-yl)carbamoyl]-4-methylthiophene-2-sulfonamide]", "IC50": 842}, {"smiles": "COC(=O)c1ccc2scc(S(=O)(=O)NC(=O)Nc3ncc(Br)s3)c2c1", "note": "[Example 10, Methyl-3-({[(5-bromo-1,3-thiazol-2-yl)carbamoyl]amino}sulfonyl)-1-benzothiophene-5-carboxylate]", "IC50": 446}, {"smiles": "COCCc1sc(S(=O)(=O)NC(=O)Nc2nc3c(C)cccc3s2)cc1C", "note": "[Example 91, 5-(2-Methoxyethyl)-4-methyl-N-[(4-methyl-1,3-benzothiazol-2-yl)carbamoyl]thiophene-2-sulfonamide]", "IC50": 375}, {"smiles": "Cc1ccc2scc(S(=O)(=O)NC(=O)Nc3ncc(Br)s3)c2c1", "note": "[Example 11, N-[(5-Bromo-1,3-thiazol-2-yl)carbamoyl]-5-methyl-1-benzothiophene-3-sulfonamide]", "IC50": 624}, {"smiles": "COCCc1sc(S(=O)(=O)NC(=O)Nc2ncc(OC)s2)cc1C", "note": "[Example 97, 5-(2-Methoxyethyl)-N-[(5-methoxy-1,3-thiazol-2-yl)carbamoyl]-4-methylthiophene-2-sulfonamide]", "IC50": 652}, {"smiles": "COCCc1sc(S(=O)(=O)NC(=O)Nc2nc3c(OC)cccc3s2)cc1C", "note": "[Example 89, N-[(4-Methoxy-1,3-benzothiazol-2-yl)carbamoyl]-5-(2-methoxyethyl)-4-methylthiophene-2-sulfonamide]", "IC50": 263}, {"smiles": "O=C(Nc1ncc(Br)s1)NS(=O)(=O)c1cc2ccccc2[nH]1", "note": "[Example 20, N-[(5-Bromo-1,3-thiazol-2-yl)carbamoyl]-1H-indole-2-sulfonamide]", "IC50": 134}, {"smiles": "Cn1cc(S(=O)(=O)NC(=O)Nc2ncc(Br)s2)c2ccc(S(C)(=O)=O)cc21", "note": "[Example 30, N-[(5-Bromo-1,3-thiazol-2-yl)carbamoyl]-1-methyl-6-(methylsulfonyl)-1H-indole-3-sulfonamide]", "IC50": 523}]}]}
